Measured values as given in ChEMBL document CHEMBL3817831, “Ionophoric polyphenols selectively bind Cu(2+), display potent antioxidant and anti-amyloidogenic properties, and are non-toxic toward Tetrahymena thermophila” (Bioorg Med Chem, 2016).
Calls of active or inactive are those of the source. The calls are words filed in the database; no cut-off is given here.

Legend:
[1] = Binding affinity to Zn2+ using ZnCl2 at 20 uM after 5 mins by spectrophotometry
[2] = Binding affinity to Fe2+ using FeCl2 at 20 uM after 5 mins by spectrophotometry
[3] = Binding affinity to Ca2+ using CaCl2 at 20 uM after 5 mins by spectrophotometry
[4] = Binding affinity to Mn2+ using MnCl2 at 20 uM after 5 mins by spectrophotometry
[5] = Binding affinity to Mg2+ using MgSO4 at 20 uM after 5 mins by spectrophotometry
[6] = Binding affinity to Cu2+ using CuCl2 at 20 uM after 5 mins by spectrophotometric titration assay
[7] = target: Amyloid-beta precursor protein (Homo sapiens) (UniProt P05067); assay: Binding affinity to amyloid beta (1 to 40) (unknown origin) by tyrosine fluorimetric titration assay
Amyloid-beta precursor protein (Homo sapiens), sequence (P05067 whole entry): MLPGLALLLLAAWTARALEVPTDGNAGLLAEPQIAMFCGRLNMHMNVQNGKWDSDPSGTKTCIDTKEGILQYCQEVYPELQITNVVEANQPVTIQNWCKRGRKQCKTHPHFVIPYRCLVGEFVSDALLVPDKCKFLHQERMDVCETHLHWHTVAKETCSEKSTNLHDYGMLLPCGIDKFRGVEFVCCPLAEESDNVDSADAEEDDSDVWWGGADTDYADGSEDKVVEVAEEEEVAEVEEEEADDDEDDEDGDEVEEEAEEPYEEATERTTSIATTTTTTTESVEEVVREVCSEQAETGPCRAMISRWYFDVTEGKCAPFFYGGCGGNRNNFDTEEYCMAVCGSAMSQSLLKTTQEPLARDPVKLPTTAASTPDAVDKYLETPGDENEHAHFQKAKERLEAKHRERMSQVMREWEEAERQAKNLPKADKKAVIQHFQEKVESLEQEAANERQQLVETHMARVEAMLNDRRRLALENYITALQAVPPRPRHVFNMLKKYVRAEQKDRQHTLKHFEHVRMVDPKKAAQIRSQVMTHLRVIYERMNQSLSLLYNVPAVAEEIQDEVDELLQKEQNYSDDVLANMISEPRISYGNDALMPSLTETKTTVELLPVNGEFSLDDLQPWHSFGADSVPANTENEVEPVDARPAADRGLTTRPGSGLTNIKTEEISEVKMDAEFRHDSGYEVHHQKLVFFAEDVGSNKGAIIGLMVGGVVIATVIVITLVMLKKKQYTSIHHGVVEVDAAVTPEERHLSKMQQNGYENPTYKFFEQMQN

[8] = Inhibition of Cu2+-amyloid beta (1 to 40) catalyzed generation of hydroxyl radical assessed as 7-hrdroxy-CCA formation at 2 equiv preincubated for 1 hr followed by CCA addition measured over 60 mins by fluorescence assay
[9] = Inhibition of Cu2+-amyloid beta (1 to 40) catalyzed generation of hydroxyl radical assessed as rate of radical formation per min at 2 equiv preincubated for 1 hr followed by CCA addition measured over 60 mins by CCA based fluorescence assay (reference value: 13 +/- 0.2 a.u.)
[10] = Antioxidant activity assessed as DPPH free radical scavenging activity after 30 mins by spectrophotometry; assay type: physicochemical
[11] = Ratio of resveratrol IC50 to compound IC50 for DPPH free radical scavenging activity
[12] = Antioxidant activity assessed as AAPH radical scavenging activity preincubated for 30 mins followed by AAPH addition measured after 60 mins by ORAC assay; assay type: physicochemical
[13] = Ratio of resveratrol IC50 to compound IC50 for AAPH radical scavenging activity
[14] = Inhibition of Cu2+-induced amyloid beta (1 to 40) aggregation at 100 uM preincubated for 5 mins followed by amyloid beta (1 to 40) addition measured after 18 days at pH 6.60 by thioflavin-T fluorescence assay
[15] = Inhibition of Cu2+-induced amyloid beta (1 to 40) fibril aggregation assessed as remaining fibril aggregates at 100 uM preincubated for 5 mins followed by amyloid beta (1 to 40) addition measured after 3 days at pH 6.60 by thioflavin-T fluorescence assay
[16] = Inhibition of Cu2+-induced amyloid beta (1 to 40) fibril aggregation assessed as remaining fibril aggregates at 100 uM preincubated for 5 mins followed by amyloid beta (1 to 40) addition measured after 7 days at pH 6.60 by thioflavin-T fluorescence assay
[17] = target: Amyloid-beta precursor protein (Homo sapiens) (UniProt P05067); assay: Inhibition of self-induced amyloid beta (1 to 40) (unknown origin) fibril aggregation assessed as remaining fibril aggregates at 100 uM after 3 days at pH 6.60 by thioflavin-T fluorescence assay
[18] = target: Amyloid-beta precursor protein (Homo sapiens) (UniProt P05067); assay: Inhibition of self-induced amyloid beta (1 to 40) (unknown origin) fibril aggregation assessed as remaining fibril aggregates at 100 uM after 7 days at pH 6.60 by thioflavin-T fluorescence assay
[19] = Inhibition of preformed Cu2+-induced amyloid beta (1 to 40) fibril aggregation assessed as remaining fibril aggregates at 100 uM after 4 days at pH 6.60 by thioflavin-T fluorescence assay
[20] = Induction of preformed Cu2+-induced amyloid beta (1 to 40) fibril aggregation at 100 uM after 4 to 12 days by turbidity assay relative to control
[21] = Inhibition of preformed Cu2+-induced amyloid beta (1 to 40) fibril aggregation assessed as remaining fibril aggregates at 100 uM after 12 days at pH 6.60 by thioflavin-T fluorescence assay
[22] = target: Amyloid-beta precursor protein (Homo sapiens) (UniProt P05067); assay: Inhibition of preformed self-induced amyloid beta (1 to 40) (unknown origin) fibril aggregation assessed as remaining fibril aggregates at 100 uM after 4 days at pH 6.60 by thioflavin-T fluorescence assay
[23] = target: Amyloid-beta precursor protein (Homo sapiens) (UniProt P05067); assay: Inhibition of preformed self-induced amyloid beta (1 to 40) (unknown origin) fibril aggregation assessed as remaining fibril aggregates at 100 uM after 12 days at pH 6.60 by thioflavin-T fluorescence assay
[24] = Induction of Cu2+-induced amyloid beta (1 to 40) fibril aggregation at 100 uM preincubated for 5 mins followed by amyloid beta (1 to 40) addition measured after 3 to 7 days by turbidity assay
[25] = Toxicity in Tetrahymena thermophila assessed as reduction in cell viability after 48 hrs by MTT assay; assay type: organism-based; conditions: Tetrahymena thermophila cells, read-out: LD50
[26] = Binding affinity to Cu2+ using CuCl2 after 5 mins by spectrophotometry
[27] = Ratio of ascorbic acid IC50 to compound IC50 for DPPH free radical scavenging activity
[28] = Inhibition of Cu2+-induced amyloid beta (1 to 40) fibril aggregation at 100 uM preincubated for 5 mins followed by amyloid beta (1 to 40) addition measured after 18 days by turbidity assay
[29] = target: Amyloid-beta precursor protein (Homo sapiens) (UniProt P05067); assay: Induction of self-induced amyloid beta (1 to 40) (unknown origin) fibril aggregation at 100 uM after 3 days by turbidity assay
[30] = target: Amyloid-beta precursor protein (Homo sapiens) (UniProt P05067); assay: Inhibition of self-induced amyloid beta (1 to 40) (unknown origin) fibril aggregation at 100 uM after 7 to 18 days by turbidity assay
[31] = target: Amyloid-beta precursor protein (Homo sapiens) (UniProt P05067); assay: Induction of preformed self-induced amyloid beta (1 to 40) (unknown origin) fibril aggregation at 100 uM after 4 days by turbidity assay
[32] = target: Amyloid-beta precursor protein (Homo sapiens) (UniProt P05067); assay: Inhibition of preformed self-induced amyloid beta (1 to 40) (unknown origin) fibril aggregation at 100 uM after 12 days by turbidity assay relative to control
[33] = Binding affinity to Cu2+ assessed as compound-metal adduct formation
[34] = Binding affinity to Cu2+ using CuCl2 at 10 uM after 5 mins by spectrophotometric titration assay
[35] = Inhibition of preformed Cu2+-induced amyloid beta (1 to 40) fibril aggregation at 100 uM after 4 to 12 days by turbidity assay relative to control
[36] = Inhibition of preformed Cu2+-induced amyloid beta (1 to 40) fibril aggregation at 100 uM after 12 days by turbidity assay relative to control
[37] = Inhibition of preformed Cu2+-induced amyloid beta (1 to 40) fibril aggregation at 100 uM after 12 days by turbidity assay relative to total turbidity of amyloid beta (1 to 40) aggregates

Structure (SMILES) | Activity [1] | Activity [2] | Activity [3] | Activity [4] | Activity [5] | Ka [7] [×10⁵ /M] | inhibition [8] [%] | Activity [9] [a.u.] | IC50 [10] [µM] | Ratio IC50 [11] | IC50 [12] [µM] | Ratio IC50 [13] | Activity [15] [%] | Activity [16] [%] | Activity [17] [%] | Activity [18] [%] | Activity [22] [%] | Activity [23] [%] | LC50 at 48 h [25] [µM] | logKa [26] | other results
Oc1ccc(CNc2ccccc2O)cc1O | inactive | inactive | inactive | inactive | inactive | 3.55 | 59.9 | 4 | 3.05 | 5.8 | 0.61 | 2.8 | 19.5 | 12.1 | 9.17 | 7.49 | 12.8 | 9.28 | 354 | 12.6 | Activity [6]: Active; inhibition [14]: Active; Activity [19]: 76.5%; Activity [20]: Active; Activity [21]: 69.7%; Activity [24]: 47%; Ratio IC50 [27]: 2; inhibition [28]: Active; Activity [29]: Active; inhibition [30]: Active; Activity [31]: Active; inhibition [32]: Active
Oc1c(I)cc(Cl)c2cccnc12 [CLIOQUINOL] | Active | Active | Active | Active | Active | 3.69 | 87.7 | 1.2 | 40.6 | 0.4 | 9.72 | 0.2 | 250 | 196 | 120 | 112 | 170 | 310 | 240 | 15.6 | Activity [20]: Active; logKa [33]: 10
Oc1ccc(/N=C/c2c(O)ccc3ccccc23)c(O)c1 | inactive | inactive | inactive | inactive | inactive | 2.46 | 98.5 | 0.03 | 13.5 | 1.3 | 3.15 | 0.5 | 7.85 | 10.9 | 6.51 | 6.21 | 14.4 | 11 | 265 | 14.3 | Activity [34]: Active; inhibition [14]: Active; Activity [19]: 46%; Activity [20]: Active; Activity [21]: 47.3%; Activity [24]: 47%; inhibition [28]: Active; Activity [29]: Active; inhibition [30]: Active; Activity [31]: Active; inhibition [32]: Active
Oc1cccc(CNc2ccccc2O)c1 | inactive | inactive | inactive | inactive | inactive | 1.55 | 51.1 | 5.4 | 5.87 | 3 | 1.24 | 1.4 | 45 | 17.2 | 8.2 | 6.65 | 11.7 | 20.3 | 180 | 13.1 | Activity [6]: Active; inhibition [14]: Active; Activity [19]: 144%; Activity [21]: 117%; Activity [24]: 47%; Ratio IC50 [27]: 2; inhibition [28]: Active; Activity [29]: Active; inhibition [30]: Active; inhibition [35]: Active; Activity [31]: Active; inhibition [32]: 46%
Oc1ccc(CNc2ccccc2O)cc1 | inactive | inactive | inactive | inactive | inactive | 3.27 | 47.3 | 6.8 | 6.27 | 2.8 | 1.38 | 1.2 | 21.8 | 11 | 4.34 | 3.7 | 8.37 | 10.1 | 211 | 12.8 | Activity [6]: Active; inhibition [14]: Active; Activity [19]: 152%; Activity [21]: 106%; Activity [24]: 47%; Ratio IC50 [27]: 2; inhibition [28]: Active; Activity [29]: Active; inhibition [30]: Active; inhibition [35]: Active; Activity [31]: Active; inhibition [32]: Active
O=C1O[C@H]([C@@H](O)CO)C(O)=C1O [ASCORBIC ACID] | – | – | – | – | – | – | – | – | 12.8 | 1.4 | 62.2 | 0.02 | – | – | – | – | – | – | – | – | –
Oc1ccc(/C=C/c2cc(O)cc(O)c2)cc1 [RESVERATROL] | inactive | Active | inactive | inactive | inactive | 1.65 | 9 | 11.2 | 17.8 | – | 1.7 | – | 25.9 | 16.1 | 7.48 | 4.25 | 100 | 24.1 | 274 | 6.7 | Activity [19]: 239%; Activity [21]: 144%; Activity [29]: Active; inhibition [35]: inactive
Oc1ccccc1/N=C/c1c(O)ccc2ccccc12 | inactive | inactive | inactive | inactive | inactive | 1.91 | 100 | 0 | 38.5 | 0.5 | 11.5 | 0.1 | 41.5 | 33.7 | 22.6 | 13.9 | 36.2 | 26.6 | 158 | 14 | Activity [34]: Active; inhibition [14]: Active; Activity [19]: 66.4%; Activity [21]: 42.8%; inhibition [28]: Active; Activity [29]: Active; inhibition [30]: Active; inhibition [36]: < 57%; inhibition [37]: < 22%; Activity [31]: Active; inhibition [32]: 25%
